Experimental data taken from patent publication US9012459B2, “Monohydrate crystalline form of 3-(5-(4-(3-fluoropropyl)-piperazin-1-yl)benzimidazol-2-yl)-1-azaazulen-2-one, preparation, and pharmaceutical composition thereof” (Industrial Technology Research Institute, priority 2012, dated 2015).
Like-named read-outs stand apart in the source and are kept apart here.

Columns and labels:
[1] = hygroscopicity test (weight gain); type: physicochemical; settings: for Weight gain (%): 1 day, temperature 22.5/21.8 ° C., relative humidity 70/71 %; for hygroscopicity: Hydroscopicity test
Method: The monohydrate form of Formula I (300 mg) was dissolved at room temperature in the mix solution of CH2Cl2 (50 mL) and methanol (50 mL). Na2SO4 (10 g) was then added into the solution to absorb water with stir for 2 hours.

[2] = stability examination by slurry test (XRPD); type: physicochemical; settings: stirred at 25° C. for 3 days in ethyl acetate, heptanes or isopropanol
Method: 1. Formula I-EA: the monohydrate form of Formula I (57 mg) and Ethyl acetate (1 mL) was provided.
2. Formula I-Heptane: the monohydrate form of Formula I (51 mg) and Heptanes (1 mL) was provided: […]
3. Formula I-IPA: the monohydrate form of Formula I (53 mg) and 1 mL of Isopropanol (1 mL) was provided.
The solutions provided above were stirred at 25° C. for 3 days and then a centrifugation was performed to collect the solid with centrifuge in each. Each of the collected solids was dried and analyzed using XPRD. […] This is a pre-test for the subsequent formulation, which is aimed to confirm that the monohydrate form wouldn't change with the incorporation of solvents. Therefore, the solvents used herein may not be the same as those crystallized solvents used in the embodiments.

[3] = stability test (XRPD and HPLC over time); type: physicochemical; settings: about 25-30° C. and 40%-45% RH; after preparation, one, two and four months
Method: An appropriate amount of samples were prepared according to the method of Example 1. A XPRD analysis and a HPLC analysis were performed, under the environment of about 25-30° C. and 40%-45% RH, after the preparation of the samples (FIGS. 7a and 8a), and after one month (FIGS. 7b and 8b), two months (FIGS. 7c and 8c), and four months (FIGS. 7d and 8d) respectively from the time of preparation, and the results were examined to observe their differences over time.

[4] = pharmacokinetics profile and bioavailability, PO dosing; type: in vivo; settings: PO 30 mg/kg, male SD rat; monohydrate in capsule and in 0.5% methyl cellulose suspension, sample #4 in 0.5% methyl cellulose
Method: The pharmacokinetics profile and the bioavailability were tested by a PO (per os) dosing with 30 mg/kg of sample of Example 1 (monohydrate), good in capsule (Tropac, 9el) and in bottle (0.5% methyl cellulose suspension) for male SD rat; and also a PO dosing with 30 mg/kg of sample #4 (mixed crystalline form) in 0.5% methyl cellulose for male SD rat as a treatment control. With the result from the above testing, the preferable PO dosing for first in human model was determined.
Generally, the PK profile of the crystalline form with good crystallinity and stability would be worse than that of amorphous form and complex form.
The terms used in FIG. 10 were listed as follows, PO (per os) represents taken by mouth; Cmax (ng/mL) represents the peak plasma concentration of a drug after administration; Tmax (hr) represents the time to reach Cmax; T1/2 (hr) represents elimination half-life, which represents the time required for the concentration of the drug to reach half of its original value; and AUC (hr*ng/mL) [area under the curve] represents the integral of the concentration-time curve (after a single dose or in steady state), and the bioavailability could be deducted from AUC values.

[5] = solubility in different pH buffer solutions (HPLC); type: physicochemical; settings: buffer solution, thermodynamic from solid, read-out: Concentration (solubility)

Weight gain (%) [1] | hygroscopicity [1] | crystalline form stability in slurry (XRPD vs original form) [2] | PK profile (Cmax, Tmax, T1/2, AUC) compared between the 3 treatments [4] | solubility at 24 h ([5]; pH 1.2, simulated gastric fluid, buffer pH1.2, 300 rpm) | solubility at 24 h ([5]; pH 5, aqueous buffer, buffer pH5, 300 rpm) | solubility at 24 h ([5]; pH 6.8, aqueous buffer, buffer pH6.8, 300 rpm) | solubility at 24 h ([5]; pH 7.4, aqueous buffer, buffer pH7.4, 300 rpm) | SMILES | stability (XRPD and HPLC differences over time) [3]
3.81% | 3.81% |  |  |  |  |  |  | O=c1[nH]c2cccccc-2c1-c1nc2ccc(N3CCN(CCCF)CC3)cc2[nH]1 [anhydrate form, 3-(5-(4-(3-fluoropropyl)piperazin-1-yl)benzimidazol-2-yl)-1-azaazulen-2-one] | 
1.57% | 1.57% | stable | no statistically significant difference | 26300 µg/mL | 263 µg/mL | 3.7 µg/mL | 2.4 µg/mL | O=c1[nH]c2cccccc-2c1-c1nc2ccc(N3CCN(CCCF)CC3)cc2[nH]1 [monohydrate form of Formula I, 3-(5-(4-(3-fluoropropyl)piperazin-1-yl)benzimidazol-2-yl)-1-azaazulen-2-one] | stable and substantially the same over four months
